In ChEMBL document CHEMBL3351435, “New pyrrole derivatives with potent tubulin polymerization inhibiting activity as anticancer agents including hedgehog-dependent cancer” (J Med Chem, 2014):
Active and inactive are the calls of the source. No cut-off for these calls is given here.

Key:
MCF7 = experiment: Cytotoxicity against human MCF7 cells after 96 hrs by Giemsa staining-based light microscopy; type: functional, cell-based; settings: MCF7, 96 h
HT-29 = experiment: Cytotoxicity against human HT-29 cells assessed as growth inhibition after 48 hrs by MTT method; type: functional, cell-based; settings: HT-29, 48 h
A549 = experiment: Cytotoxicity against human A549 cells assessed as growth inhibition after 48 hrs by MTT method; type: functional, cell-based; settings: A549, 48 h
NCI/ADR-RES = experiment: Cytotoxicity against human NCI/ADR-RES cells assessed as growth inhibition after 96 hrs by Giemsa staining-based light microscopy; type: functional, cell-based
[1] = Cytotoxicity against human MESSA cells assessed as growth inhibition after 72 hrs by CellTitre-Glo assay; type: functional, cell-based; settings: MES-SA
[2] = Cytotoxicity against human MESSA/DX5 cells assessed as growth inhibition after 72 hrs by CellTitre-Glo assay; type: functional, cell-based; settings: MES-SA/Dx5, 72 h
HeLa [3] = experiment: Cell cycle arrest in human HeLa cells assessed as accumulation at G2/M phase at 100 nM by propidium iodide staining-based flow cytometry; type: functional
HeLa [4] = experiment: Cell cycle arrest in human HeLa cells assessed as accumulation at G2/M phase at 20 nM by propidium iodide staining-based flow cytometry; type: functional
HeLa [5] = experiment: Induction of apoptosis in human HeLa cells assessed as failure of MT elongation at 20 nM by immunofluorescence analysis; type: functional, cell-based
HeLa [6] = experiment: Induction of apoptosis in human HeLa cells assessed as blockage of mitotic progression at 100 nM by annexin V staining-based immunofluorescence microscopy; type: functional, cell-based
HeLa [7] = experiment: Induction of apoptosis in human HeLa cells assessed as blockage of mitotic progression at 20 to 100 nM by annexin V staining-based immunofluorescence microscopy; type: functional, cell-based
HeLa [8] = experiment: Cell cycle arrest in human HeLa cells assessed as reduction in mitotic slippage at 100 nM by annexin V staining-based immunofluorescence microscopy; type: functional
HeLa [9] = experiment: Cell cycle arrest in human HeLa cells by propidium iodide staining-based flow cytometry; type: functional
[10] = Cytotoxicity against human PC3 cells assessed as growth inhibition after 48 hrs by MTT method; type: functional, cell-based; settings: PC-3, 48 h
RD [11] = experiment: Cytotoxicity against human RD cells assessed as growth inhibition after 48 hrs by MTT method; type: functional, cell-based
RD [12] = experiment: Cell cycle arrest in human RD cells assessed as accumulation at G2/M phase at 500 nM after 24 hrs by propidium iodide staining-based flow cytometry; type: functional
HepG2 [13] = experiment: Cell cycle arrest in human HepG2 cells assessed as accumulation at G2/M phase at 500 nM after 24 hrs by propidium iodide staining-based flow cytometry; type: functional
[14] = Cell cycle arrest in human PC3 cells assessed as rounded cells at 500 nM after 24 hrs by propidium iodide staining-based flow cytometry; type: functional; settings: PC-3
RD [15] = experiment: Cell cycle arrest in human RD cells assessed as rounded cells at 500 nM after 24 hrs by propidium iodide staining-based flow cytometry; type: functional
RD [16] = experiment: Cell cycle arrest in human RD cells at 500 nM incubated for 24 hrs followed by compound washout measured after 24 hrs; type: functional, cell-based
RD [17] = experiment: Induction of apoptosis in human RD cells at 500 to 2000 nM after 48 hrs by annexin-V/propidium iodide staining-based flow cytometry; type: functional, cell-based
HepG2 [18] = experiment: Induction of apoptosis in human HepG2 cells at 500 to 2000 nM after 48 hrs by annexin-V/propidium iodide staining-based flow cytometry; type: functional, cell-based
K562 [19] = experiment: Cytotoxicity against human K562 cells assessed as growth inhibition after 96 hrs by Giemsa staining-based light microscopy; type: functional, cell-based; settings: K562, 96 h
K562 [20] = experiment: Cell cycle arrest in human K562 cells assessed as mitotic index at 10 times IC50 (reference value: […] +/- […]%); type: functional
[21] = Inhibition of hedgehog signaling in mouse NIH/3T3 Shh-Light II cells after 48 hrs by luciferase reporter gene assay; type: functional, cell-based
[22] = Cytotoxicity against human D283 cells; type: functional, cell-based
[23] = Cmax in CD-1 mouse at 5 mg/kg, iv; type: ADME, organism-based; set-up: dose 5 mg/kg, route intravenous; settings: in vivo
[24] = Initial plasma concentration in CD-1 mouse at 5 mg/kg, iv; type: ADME, organism-based; set-up: dose 5 mg/kg, route intravenous
Mus musculus [25] = experiment: Tlast in CD-1 mouse at 5 mg/kg, iv; type: ADME, organism-based; set-up: dose 5 mg/kg, route intravenous; settings: in vivo
Mus musculus [26] = experiment: Clast in CD-1 mouse at 5 mg/kg, iv; type: ADME, organism-based; set-up: dose 5 mg/kg, route intravenous; settings: in vivo
[27] = Clearance in CD-1 mouse at 5 mg/kg, iv; type: ADME, organism-based; set-up: dose 5 mg/kg, route intravenous; settings: in vivo
[28] = Volume of distribution at steady state in CD-1 mouse at 5 mg/kg, iv; type: ADME, organism-based; set-up: dose 5 mg/kg, route intravenous; settings: in vivo, read-out: Vdss
[29] = AUC infinity in CD-1 mouse at 5 mg/kg, iv; type: ADME, organism-based; set-up: time infinity, dose 5 mg/kg, route intravenous; settings: plasma
Mus musculus [30] = experiment: Tlast in CD-1 mouse at 15 mg/kg, po; type: ADME, organism-based; set-up: dose 15 mg/kg, route oral; settings: in vivo
[31] = Mean residence time in CD-1 mouse at 15 mg/kg, po; type: ADME, organism-based; set-up: dose 15 mg/kg, route oral; settings: in vivo
Mus musculus [32] = experiment: AUC (0 to 480 mins) in CD-1 mouse at 15 mg/kg, po; type: ADME, organism-based, Plasma; set-up: time < 8 hr, dose 15 mg/kg, route oral; settings: in vivo, 8 h
[33] = AUC infinity in CD-1 mouse at 15 mg/kg, po; type: ADME, organism-based; set-up: time infinity, dose 15 mg/kg, route oral; settings: plasma
Mus musculus [34] = experiment: Oral bioavailability (last) in CD-1 mouse at 15 mg/kg; type: ADME, organism-based; settings: in vivo
CYP1A2 = biological target: T1, CYP1A2 (Homo sapiens, UniProt P05177); experiment: Inhibition of human CYP1A2 using furafylline as substrate at 1 uM; type: ADME; settings: probe furafylline
T1 sequence (P05177 whole entry): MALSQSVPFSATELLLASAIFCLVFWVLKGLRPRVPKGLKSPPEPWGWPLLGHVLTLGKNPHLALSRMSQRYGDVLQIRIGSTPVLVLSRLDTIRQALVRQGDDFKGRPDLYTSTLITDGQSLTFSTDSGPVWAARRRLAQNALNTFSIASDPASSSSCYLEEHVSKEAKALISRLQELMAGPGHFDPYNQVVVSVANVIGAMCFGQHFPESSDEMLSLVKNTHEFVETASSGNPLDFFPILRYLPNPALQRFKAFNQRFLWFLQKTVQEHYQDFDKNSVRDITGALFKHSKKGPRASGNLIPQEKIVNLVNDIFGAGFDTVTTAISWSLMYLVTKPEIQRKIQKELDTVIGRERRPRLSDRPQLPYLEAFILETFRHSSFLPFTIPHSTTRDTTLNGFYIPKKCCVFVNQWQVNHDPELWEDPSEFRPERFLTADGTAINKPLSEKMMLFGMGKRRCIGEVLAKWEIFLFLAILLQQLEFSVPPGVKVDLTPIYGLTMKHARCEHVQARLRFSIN

CYP2C19 = CYP2C19 (Homo sapiens, UniProt P33261); experiment: Inhibition of human CYP2C19 using tranylcypromine as substrate at 1 uM; type: ADME; settings: probe tranylcypromine
CYP2C9 = CYP2C9 (Homo sapiens, UniProt P11712); experiment: Inhibition of human CYP2C9 using sulfaphenazole as substrate at 1 uM; type: ADME; settings: probe sulfaphenazole
CYP2D6 = CYP2D6 (Homo sapiens, UniProt P10635); experiment: Inhibition of human CYP2D6 using quinidine as substrate at 1 uM; type: ADME; settings: probe quinidine
CYP3A4 = CYP3A4 (Homo sapiens, UniProt P08684); experiment: Inhibition of human CYP3A4 using ketoconazole as substrate at 1 uM; type: ADME; settings: probe ketoconazole
Sequence of CYP3A4 (P08684 whole entry): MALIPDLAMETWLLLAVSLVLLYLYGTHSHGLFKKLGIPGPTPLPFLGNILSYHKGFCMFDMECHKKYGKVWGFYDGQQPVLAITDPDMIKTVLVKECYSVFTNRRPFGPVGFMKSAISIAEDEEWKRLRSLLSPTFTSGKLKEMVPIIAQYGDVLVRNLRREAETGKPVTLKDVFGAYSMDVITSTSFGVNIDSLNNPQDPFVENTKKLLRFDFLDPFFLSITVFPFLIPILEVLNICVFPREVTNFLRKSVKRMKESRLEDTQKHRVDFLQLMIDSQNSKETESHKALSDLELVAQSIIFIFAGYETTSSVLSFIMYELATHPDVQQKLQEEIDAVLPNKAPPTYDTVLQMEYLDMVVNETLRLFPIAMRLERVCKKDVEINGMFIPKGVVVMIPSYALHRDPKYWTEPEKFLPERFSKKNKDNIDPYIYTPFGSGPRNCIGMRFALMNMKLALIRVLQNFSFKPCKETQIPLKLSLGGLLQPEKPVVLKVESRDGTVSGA

Sequence of CYP2C19 (P33261 whole entry): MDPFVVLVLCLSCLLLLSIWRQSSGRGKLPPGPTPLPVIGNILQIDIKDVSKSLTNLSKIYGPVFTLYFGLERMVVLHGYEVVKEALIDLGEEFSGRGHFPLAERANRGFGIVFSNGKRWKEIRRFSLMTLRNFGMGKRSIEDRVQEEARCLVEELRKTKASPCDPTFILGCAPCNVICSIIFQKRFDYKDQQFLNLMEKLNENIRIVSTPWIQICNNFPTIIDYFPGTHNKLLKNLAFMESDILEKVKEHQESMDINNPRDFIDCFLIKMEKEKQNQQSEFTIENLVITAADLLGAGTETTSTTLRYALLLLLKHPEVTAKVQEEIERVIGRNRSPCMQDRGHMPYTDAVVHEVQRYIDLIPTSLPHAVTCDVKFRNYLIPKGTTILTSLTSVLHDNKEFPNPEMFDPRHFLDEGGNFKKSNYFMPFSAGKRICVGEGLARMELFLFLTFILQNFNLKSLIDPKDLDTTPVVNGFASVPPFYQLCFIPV
Sequence of CYP2D6 (P10635 whole entry): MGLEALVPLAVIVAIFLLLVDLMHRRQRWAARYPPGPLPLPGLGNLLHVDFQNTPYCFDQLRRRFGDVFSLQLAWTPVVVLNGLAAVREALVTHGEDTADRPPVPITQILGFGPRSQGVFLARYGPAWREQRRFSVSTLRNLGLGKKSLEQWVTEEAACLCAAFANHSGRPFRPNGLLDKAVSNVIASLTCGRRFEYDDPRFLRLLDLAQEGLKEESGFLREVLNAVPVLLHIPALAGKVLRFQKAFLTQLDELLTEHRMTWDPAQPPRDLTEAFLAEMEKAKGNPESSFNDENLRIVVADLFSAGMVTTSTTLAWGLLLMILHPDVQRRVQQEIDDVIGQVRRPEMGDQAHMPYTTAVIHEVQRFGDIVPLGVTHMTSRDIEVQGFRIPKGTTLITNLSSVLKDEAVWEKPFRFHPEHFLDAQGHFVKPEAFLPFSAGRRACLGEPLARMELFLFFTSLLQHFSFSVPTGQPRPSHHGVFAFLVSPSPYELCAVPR
Sequence of CYP2C9 (P11712 whole entry): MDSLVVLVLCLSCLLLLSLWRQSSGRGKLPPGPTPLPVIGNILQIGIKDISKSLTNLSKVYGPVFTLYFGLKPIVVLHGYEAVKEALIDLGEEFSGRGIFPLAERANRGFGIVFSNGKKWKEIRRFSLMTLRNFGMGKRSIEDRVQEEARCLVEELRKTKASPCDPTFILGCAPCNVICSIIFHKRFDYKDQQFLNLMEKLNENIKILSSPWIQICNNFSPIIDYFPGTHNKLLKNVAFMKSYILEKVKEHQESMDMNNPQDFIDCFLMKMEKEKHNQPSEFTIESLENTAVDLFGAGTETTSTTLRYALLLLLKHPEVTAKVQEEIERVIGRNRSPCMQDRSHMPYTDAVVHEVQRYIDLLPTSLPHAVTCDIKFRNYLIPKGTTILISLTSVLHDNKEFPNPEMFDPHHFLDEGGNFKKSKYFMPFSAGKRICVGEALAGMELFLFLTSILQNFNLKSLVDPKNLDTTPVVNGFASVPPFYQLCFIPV

Compound: COc1cc(C(=O)c2ccn(-c3cccc(N)c3)c2)cc(OC)c1OC
- IC50 (MCF7): 0.015 µM
- IC50 (HT-29): 0.06 µM
- IC50 (A549): 0.01 µM
- IC50 (NCI/ADR-RES): 0.001 µM
- IC50 [1]: 0.0018 µM
- IC50 [2]: 0.0046 µM
- Activity (HeLa [3]): Active
- Activity (HeLa [4]): Active
- Activity (HeLa [5]): Active
- Activity (HeLa [6]): Active
- Activity (HeLa [7]): Active
- Activity (HeLa [8]): inactive
- Activity (HeLa [9]): Dose-dependent effect
- IC50 [10]: 0.0098 µM
- IC50 (RD [11]): 0.0953 µM
- Activity (RD [12]): Active
- Activity (HepG2 [13]): Active
- Activity [14]: Active
- Activity (RD [15]): Active
- Activity (RD [16]): Active
- Activity (RD [17]): Active
- Activity (HepG2 [18]): Active
- IC50 (K562 [19]): 0.02 µM
- Activity (K562 [20]): 60%
- IC50 [21]: 0.676 µM
- inhibition [21]: Dose-dependent effect
- IC50 [22]: 0.58 µM
- Cmax [23]: 3.4 µg/mL
- C0 [24]: 4.15 µg/mL
- Tlast (Mus musculus [25]): 480 min
- Clast (Mus musculus [26]): 0.0023 µg/mL
- clearance [27]: 4.85 L/h/kg
- Vd [28]: 2.7 L/kg
- AUC(0-inf) [29]: 1.03 µg·h/mL
- Tlast (Mus musculus [30]): 480 min
- MRT [31]: 2.42 h
- AUC (Mus musculus [32]): 79441 ng·min/mL
- AUC(0-inf) [33]: 1.47 µg·h/mL
- F (Mus musculus [34]): 49%
- inhibition at 1 µM (CYP1A2): 66.8%
- inhibition at 1 µM (CYP2C19): 72.6%
- inhibition at 1 µM (CYP2C9): 28.9%
- inhibition at 1 µM (CYP2D6): < 5%
- inhibition at 1 µM (CYP3A4): 12.2%
